The source of these data is US20200270232A1, “INHIBITORS OF INTEGRATED STRESS RESPONSE PATHWAY” (Praxis Biotech LLC, priority 2019, published 2020).

In one assay the test system is ATF4. In words: ATF4 expression inhibition assay (ATF4 luciferase reporter). It counts as cell-based. Particulars: Homo sapiens, HEK-293T; HEK293T cells carrying the ATF4 luciferase reporter, 100 nM thapsigargin (Tg), 3 hours; read-out: ATF4 inhbition IC50. On the procedure:
The ATF4 reporter was prepared by fusing the human full length 5′UTR of ATF4 (NCBI Accession No. BC022088.2) upstream of the firefly luciferase coding sequence lacking the initiator methionine. The fused sequence was cloned into pLenti-EF1a-C-Myc-DDK-IRES-Puro cloning vector (Origen # PS 100085) using standard methods. Virus production was carried out by using Lenti-X™ Packaging Single Shots Protocol (Clonetech #631276). Viral particles were used to transduce HEK293T cells (ATCC # CRL-3216, ATCC Manassas, Va.), which were subsequently selected with puromycin to generate stable cell line. Cells were maintained at 37° C. and 5% CO2 in DMEM-F12 (Hyclone # SH30023.02) supplemented with 10% heat-inactivated fetal bovine serum (Gibco #16000-044), 2 mM L-glutamine (Gibco #25030-081), 100 U/ml penicillin, and 100 μg/ml streptomycin (Gibco #15140-122).
HEK293T cells carrying the ATF4 luciferase reporter were plated on 96-well plates (Nunc) at 10,000 cells per well. Cells were treated two days after seeding with 100 nM thapsigargin (Tg) (Sigma-Aldrich # T9033) in the presence of different concentrations of selected compounds ranging from 1 nM to 10 μM. Cells without treatment or cells treated with Tg alone were used as controls. Assay plates containing cells were incubated for 3 hours at 37° C.
Luciferase reactions were performed using Luciferase Assay System (Promega # E1501) as specified by the manufacturer. Luminescence was read with an integration time of 1 s and a gain of 110 using a Cytation-5 multi-mode microplate reader (BioTek). Relative luminescence units were normalized to Tg treatment (0% inhibition) and untreated cells (100% inhibition) and the percentage of ATF4 inhibition was calculated.
Accordingly, inhibition of ATF4 expression as a result of the test compound indicates suppression of the ISR pathway.
On the technique in general: A reporter such as luciferase makes a cellular process visible.

The subject of assay [1] is Chinese hamster ovary (CHO) cells. Description: Protein translation assay (puromycin labelling, western blot). It counts as cell-based. Conditions: 2 hours, media alone = 100%; for activity at 1 µM: Cricetulus griseus, unstressed CHO cells (without Tg), 1 μM test compound, read-out: % Protein synthesis relative to untreated (1 μM test compound); for % Recovery of protein synthesis (1 μM test compound): stressed CHO cells, 300 nM Tg, Tg alone = 0%. On the procedure:
Chinese hamster ovary (CHO) cells were maintained at 37° C. and 5% C02 in Dulbecco's Modified Eagle's Media (DMEM) supplemented with 10% fetal bovine serum, 2 mM L-glutamine, 100 U/ml penicillin, and 100 μg/ml streptomycin. After reaching 80% of confluence, cells were detached and seeded on 6 well plates in complete media, allowed to recover overnight and treated for 2 hours with 1 μM of the test compound (to assess protein synthesis levels in unstressed condition), or for 2 hours with 300 nM Tg in the presence of 1 μM of the test compound (to assess the recovery of protein synthesis in a stressed condition). Cells with Tg alone were used as controls.
After the 2 hours treatments, media were replaced by adding 10 μg/ml puromycin (Sigma Aldrich # P8833) in complete media for 30 min. Media were removed and cells were lysed with SDS-PAGE lysis buffer. Lysates were transferred to 1.5 ml tubes and sonicated for 3 min and total protein amount were quantified using BCA Protein Assay Kit (Pierce). Equal amount of protein (30 μg) was loaded on SDS-PAGE gels. Proteins were transferred onto 0.2 μm PVDF membranes (BioRad) and probed with primary antibodies diluted in Tris-buffered saline supplemented with 0.1% Tween 20 (Merck # S6996184 505) and 3% bovine serum albumin (Rockland # BSA-50).
Puromycin (12D10) (Merck # MABE343) and β-actin (Sigma Aldrich # A5441) antibodies were used as primary antibody. A HRP-conjugated secondary antibody (Rockland) was employed to detect immune-reactive bands using enhanced chemiluminescence (ECL Western Blotting Substrate, Pierce). Quantification of protein bands was done by densitometry using ImageJ software.
Percent increase of protein synthesis in unstressed cells (without Tg treatment) in the presence of media alone or certain test compounds is shown in Table 3. The percentage levels were normalized to the media alone condition, which correspond to 100% protein synthesis.
Percent recovery of protein synthesis in stressed cells (with Tg treatment) due to the test compounds at 1 μM is also shown in Table 3. The levels were normalized to the media alone and Tg alone conditions, which correspond to 100% and 0% respectively.
In general terms: Immunoblotting shows a protein as a band on a membrane.

The term IC50 denotes the point on the concentration scale where inhibition reaches its midpoint. As for `O=C(NC1CCN(CCCOc2ccc(Cl)c(F)c2)C1)c1cc2cc(Cl)ccc2o1` (stereo not shown) [Compound 101, 5-chloro-N-(1-(3-(4-chloro-3-fluorophenoxy)propyl)pyrrolidin-3-yl)benzofuran-2-carboxamide], in the assay with ATF4, the concentration for half-maximal inhibition (IC50) was above 0.1 µM. In addition, in assay [1], the activity at 1 µM worked out at 93.2% and the “% Recovery of protein synthesis (1 μM test compound)” value (from here on “% Recovery of protein synthesis”) was 86.10%.
For `O=C(NCC1CCC(NCC(O)COc2ccc(Cl)c(F)c2)C1)c1cc2cc(Cl)ccc2o1` (stereo not shown) [Compound 33, 5-chloro-N-((3-((3-(4-chloro-3-fluorophenoxy)-2-hydroxypropyl)amino)cyclopentyl)methyl)benzofuran-2-carboxamide], in that order: above 1 µM, 147% and 101.1%.
On to `O=C(NC1CC[C@H](NC[C@@H](O)COc2ccc(Cl)c(F)c2)C1)c1cc2cc(Cl)ccc2o1` (stereo partly drawn) [Compound 90, 5-chloro-N-((3S)-3-(((R)-3-(4-chloro-3-fluorophenoxy)-2-hydroxypropyl)amino)cyclopentyl)benzofuran-2-carboxamide], for which the IC50 in the assay with ATF4 is 0.0578 µM. Moreover, in assay [1], the activity at 1 µM came to 210% and the “% Recovery of protein synthesis” value was 269.7%.
Consider `O=C(NC1CCC(NC[C@@H](O)COc2ccc(Cl)c(F)c2)C1)c1cc2cc(Cl)ccc2o1` (stereo partly drawn) [Compound 82, 5-chloro-N-(3-(((R)-3-(4-chloro-3-fluorophenoxy)-2-hydroxypropyl)amino)cyclopentyl)benzofuran-2-carboxamide], for which, in the assay on ATF4, the IC50 is above 1 µM. Also, in assay [1], the activity at 1 µM is 160% and the “% Recovery of protein synthesis” value is 176.4%.
For `O=C(NC1CC[C@H](NC[C@H](O)COc2ccc(Cl)c(F)c2)C1)c1cc2cc(Cl)ccc2o1` (stereo partly drawn) [Compound 91, 5-chloro-N-((3S)-3-(((S)-3-(4-chloro-3-fluorophenoxy)-2-hydroxypropyl)amino)cyclopentyl)benzofuran-2-carboxamide], in that order: 1.24 µM, 190% and 209.4%.
In the same order, the values of `O=C(COc1ccc(Cl)c(F)c1)NCC1CCN(NC(=O)c2cc3cc(Cl)ccc3o2)C1` (stereo not shown) [Compound 12, 5-chloro-N-(3-((2-(4-chloro-3-fluorophenoxy)acetamido)methyl)pyrrolidin-1-yl)benzofuran-2-carboxamide] are 0.00358 µM, 97.7% and 13%.
On to `O=C(N[C@H]1CC[C@@H](NCC(O)COc2ccc(Cl)c(F)c2)C1)c1cc2cc(Cl)ccc2o1` (stereo partly drawn) [Compound 21, 5-chloro-N-((1S,3R)-3-((3-(4-chloro-3-fluorophenoxy)-2-hydroxypropyl)amino)cyclopentyl)benzofuran-2-carboxamide], for which, in the assay with ATF4, the IC50 is above 1 µM. Also, in assay [1], the activity at 1 µM is 141% and the “% Recovery of protein synthesis” value is reported as 54.6%.
In the case of `O=C(COc1ccc(Cl)c(F)c1)NC[C@H]1CCN(NC(=O)c2cc3cc(Cl)ccc3o2)C1` [Compound 97, (R)-5-chloro-N-(3-((2-(4-chloro-3-fluorophenoxy)acetamido)methyl)pyrrolidin-1-yl)benzofuran-2-carboxamide], in the assay with ATF4, the half-maximal inhibitory concentration (IC50) was 0.025 µM. Besides, the activity at 1 µM in assay [1] was found to be 109%.
With `O=C(COc1ccc(Cl)c(F)c1)N[C@@H]1CC[C@H](NC(=O)COc2ccc(Cl)c(F)c2)C1` [Compound 15, N,N′-((1R,3S)-cyclopentane-1,3-diyl)bis(2-(4-chloro-3-fluorophenoxy)acetamide)], in the assay on ATF4, the IC50 is above 0.1 µM. The activity at 1 µM in assay [1] is 110%.
`O=C(NC1CCN(CCCOc2ccc(Cl)c(F)c2)C1)c1ccc2cc(Cl)ccc2n1` (stereo not shown) [Compound 56, 6-chloro-N-(1-(3-(4-chloro-3-fluorophenoxy)propyl)pyrrolidin-3-yl)quinoline-2-carboxamide]: the IC50 with ATF4 was above 1 µM. In addition, in assay [1], the activity at 1 µM came out at 100% and the “% Recovery of protein synthesis” value is reported as 32.73%.
For `O=C(COc1ccc(Cl)c(F)c1)N[C@H]1CC[C@H](NC(=O)c2cc3cc(Cl)ccc3o2)C1` [Compound 14, 5-chloro-N-((1S,3S)-3-(2-(4-chloro-3-fluorophenoxy)acetamido)cyclopentyl)benzofuran-2-carboxamide], the IC50 with ATF4 stood at 0.217 µM. The activity at 1 µM in assay [1] was determined as 65.9%.
Consider `O=C(N[C@H]1CC[C@H](NCC(O)COc2ccc(Cl)c(F)c2)C1)c1ccc2cc(Cl)ccc2n1` (stereo partly drawn) [Compound 13, 6-chloro-N-((1S,3S)-3-((3-(4-chloro-3-fluorophenoxy)-2-hydroxypropyl)amino)cyclopentyl)quinoline-2-carboxamide], for which, in the assay on ATF4, the 50% inhibitory concentration (IC50) is above 0.1 µM. In assay [1], the activity at 1 µM was 288% and the “% Recovery of protein synthesis” value amounted to 161.6%.
In the same order, the values of `O=C(N[C@H]1CC[C@H](NC[C@@H](O)COc2ccc(Cl)c(F)c2)C1)c1cc2cc(Cl)ccc2o1` [Compound 94, 5-chloro-N-((1S,3S)-3-(((R)-3-(4-chloro-3-fluorophenoxy)-2-hydroxypropyl)amino)cyclopentyl)benzofuran-2-carboxamide] are 0.0243 µM, 169% and 298.3%.
As to `O=C(COc1ccc(Cl)c(F)c1)NCC1CCC(NC(=O)c2cc3cc(Cl)ccc3o2)C1` (stereo not shown) [Compound 86, 5-chloro-N-(3-((2-(4-chloro-3-fluorophenoxy)acetamido)methyl)cyclopentyl)benzofuran-2-carboxamide], in the assay on ATF4, the IC50 was below 0.1 µM. The activity at 1 µM in assay [1] is 94.2%.
Consider `O=C(N[C@H]1CC[C@@H](NCC(O)COc2ccc(Cl)c(F)c2)C1)c1ccc2cc(Cl)ccc2n1` (stereo partly drawn) [Compound 3, 6-chloro-N-((1S,3R)-3-((3-(4-chloro-3-fluorophenoxy)-2-hydroxypropyl)amino)cyclopentyl)quinoline-2-carboxamide], for which the concentration for half-maximal inhibition (IC50) in the assay with ATF4 amounted to 0.249 µM. Also, in assay [1], the activity at 1 µM came to 176% and the “% Recovery of protein synthesis” value is on record as 286%.
For `O=C(NC1CCC(NC[C@H](O)COc2ccc(Cl)c(F)c2)C1)c1cc2cc(Cl)ccc2o1` (stereo partly drawn) [Compound 83, 5-chloro-N-(3-(((S)-3-(4-chloro-3-fluorophenoxy)-2-hydroxypropyl)amino)cyclopentyl)benzofuran-2-carboxamide], in that order: above 1 µM, 129% and 175.2%.
Regarding `O=C(N[C@@H]1CC[C@@H](NC[C@@H](O)COc2ccc(Cl)c(F)c2)C1)c1cc2cc(Cl)ccc2o1` [Compound 95, 5-chloro-N-((1R,3R)-3-(((R)-3-(4-chloro-3-fluorophenoxy)-2-hydroxypropyl)amino)cyclopentyl)benzofuran-2-carboxamide], the IC50 in the assay with ATF4 is below 1 µM. In addition, in assay [1], the activity at 1 µM turned out to be 186% and the “% Recovery of protein synthesis” value stood at 170.5%.
Regarding `O=C(COc1ccc(Cl)c(F)c1)N[C@H]1CC[C@H](NC(=O)COc2ccc(Cl)c(F)c2)C1` [Compound 1, N,N′-((1S,3S)-cyclopentane-1,3-diyl)bis(2-(4-chloro-3-fluorophenoxy)acetamide)], the IC50 in the assay on ATF4 was 0.856 µM. Further, in assay [1], the activity at 1 µM was determined as 46.9%.
